Measurements from patent US11905268B2, “Anthranilic acid derivatives and their use in the treatment of human cancers” (UNIVERSITY OF CENTRAL FLORIDA RESEARCH FOUNDATION, INC., priority 2018, dated 2024).
Converted amounts (≈) assume the structure as drawn. Read-outs that look alike come from different tables or passages of the source.

Assays:
[1] = Microsomal stability, human; assay type: in vitro ADME
[2] = test system: L3.6pl cells; test: cells; assay type: cell-based
[3] = test system: CHO cells; test: Ant44 rescue assay in CHO cells (Assay 1); assay type: cell-based, Chinese hamster; conditions: for EC50 / IC50: Cricetulus griseus
[4] = Plasma stability, human; assay type: in vitro ADME
[5] = Microsomal stability, rat; assay type: in vitro ADME
[6] = Microsomal stability, mouse; assay type: in vitro ADME
[7] = test system: L3.6pl cells; test: Ant44 assay in L3.6pl cells; assay type: cell-based, human
Procedure: For example, in the ANT44 assay an EC48=9 means that the PTI molecule at 9 μM was able to block 48% of the Ant44 entry into L3.6 pl human Pancreatic ductal adenocarcinoma cells after 72 h incubation time at 37° C. Another explanation, is that the PTI was able to disrupt […] of the intracellular trafficking of Ant44 that leads to toxicity. Recall a polyamine transport inhibitor can work at any one (or more than one) of the different steps involved in the multi-step polyamine import and intracellular trafficking process. Blocking the entering spermidine from reaching its intended intracellular target is another way in which these compounds may function.
The higher EC value denotes the compound is giving a relative % growth of L3.6 pl cells consistent with inhibiting either Ant44 uptake or blocking the uptake of the rescuing dose of spermidine. Alternatively these compounds may disrupting the intracellular trafficking of Ant44 and spermidine so they cannot reach their intended intracellular target.

[8] = Plasma stability, rat; assay type: in vitro ADME
[9] = test system: CHO cells; test: Cytotoxicity screen in CHO cells
[10] = Plasma stability, mouse; assay type: in vitro ADME
[11] = test system: DFMO treated Chinese hamster ovary (CHO) cells; test: DFMO/spermidine rescue assay in CHO cells (Assay 2); assay type: cell-based; conditions: Cricetulus griseus
[12] = Solubility; assay type: physicochemical; conditions: for solubility: PBS
[13] = summary of Table 6 (human, mouse, rat)

## COc1ccc(C(=O)Nc2ccc(N3CCN(c4ccccc4OC)CC3)cc2C(=O)O)cc1 [SBI-0800678]
[1]; Human
  Microsomal Stability % remaining at 1 hour: 52.0%
[1]; [13]
  microsomal stability: good
[2]; Homo sapiens, L3.6pl, relative growth after 72 h, read-out: L3.6pl IC50
  IC50: 13.3 ± 0.04 µM
[2]; maximum tolerated concentration where cells are >90% viable
  L3.6pl MTC: 6 µM
[3]; CHO, Table 2, Active in Ant44 assay?, read-out: Ant44 assay EC50 in CHO
  EC50: ~20 µM
[3]; CHO, Table 7, read-out: SAR IC50 Ant44 assay
  IC50: 9 µM
[3]; Table 1 HTS top hits, CHO cells, read-out: Ant44 EC50
  EC50: 20 µM
[3]; Table 4B, CHO cells, read-out: Ant44 IC50
  IC50: 9 µM
[3]; Table 2, in CHO
  Active in Ant44 assay?: Yes
[4]; Human
  Plasma Stability % remaining at 3 hours: 88.0%
[4]; [13]
  plasma stability: good
[5]
  Microsomal Stability % remaining at 1 hour: 58.0%
[6]
  Microsomal Stability % remaining at 1 hour: 60.4%
[7]
  worked in Assay 1 (Ant44): worked
[8]
  Plasma Stability % remaining at 3 hours: 55.3%
[9]; Chinese hamster, CHO K1 cells
  IC50 at 48 h: > 40 µM
[9]; hamster
  CHO MTD: >32 µM
[9]; toxic above the stated concentration, CHO cells, listed with Ant44 assay
  Tox (Ant44): SBI- 0800678.0001 (20 EC50) Tox >20 μM
[9]; toxic above the stated concentration, CHO cells, listed with DFMO assay
  tox (DFMO Assay): > 15 µM
[10]
  Plasma Stability % remaining at 3 hours: 83.1%
[11]; CHO, Table 2
  EC50: ~25 µM
[11]; Table 1 HTS top hits, CHO cells, read-out: DFMO Assay IC50
  IC50: 15 to 25 µM
[12]
  solubility in PBS: poorly soluble
[12]; aqueous buffer, pH 5.0
  solubility: 0.3 µg/mL (≈ 0.65 µM)
[12]; pH 6.2, aqueous buffer
  solubility: 0.1 µg/mL (≈ 0.217 µM)
[12]; pH 7.4, aqueous buffer
  solubility: > 0.1 µg/mL
